For 22 molecules, IC50 results are on record in patent publication US20170022171A1, “2,5-DISUBSTITUTED CYCLOPENTANECARBOXYLIC ACIDS AND THEIR USE” (Bayer Pharma Aktiengesellschaft, priority 2014, published 2017).

This assay deals with T1, human macrophage elastase (HME/hMMP-12) (Homo sapiens, UniProt P39900).
T1 construct: 0.5 nM HME; purchased R&D Systems 917-MP
The assay is described as follows: In vitro HME inhibition test (standard or high-sensitivity). The class given is biochemical. The settings on record: in some cases mean values. The method, then: The potency of the compounds according to the invention with respect to HME (MMP-12) is determined in an in vitro inhibition test. The HME-mediated amidolytic cleavage of a suitable peptide substrate leads to an increase in fluorescent light therein. The signal intensity of the fluorescent light is directly proportional to the enzyme activity. The active concentration of a test compound at which half the enzyme is inhibited (50% signal intensity of the fluorescent light) is reported as the IC50 value.
In a 384 hole microtiter plate, in a total test volume of 41 the test buffer (0.1 M HEPES pH 7.4, 0.15 M NaCl, 0.03 M CaCl2, 0.004 mM ZnCl2, 0.02 M EDTA, 0.005% Brij®), the enzyme (0.5 nM HME; from R&D Systems, 917-MP, autocatalytic activation according to the manufacturer's instructions) and the intramolecularly quenched substrate [5 μM Mca-Pro-Leu-Gly-Leu-Glu-Glu-Ala-Dap(Dnp)-NH2; Bachem, M-2670] are incubated in the absence and presence of the test substance (as a solution in DMSO) at 37° C. for two hours. The fluorescence intensity of the test mixtures is measured (excitation […], emission 393 nm). The IC50 values are ascertained by plotting the fluorescent light intensity against the active ingredient concentration.
In this case, an enzyme concentration ten times lower is used (final concentration, for example, 0.05 nM) in order to achieve an elevated test sensitivity. The incubation period chosen for the test is correspondingly longer (for example 16 hours).

The structures appear in SMILES notation. pIC50: −log10 of the molar value.

T1 sequence (P39900 106-470): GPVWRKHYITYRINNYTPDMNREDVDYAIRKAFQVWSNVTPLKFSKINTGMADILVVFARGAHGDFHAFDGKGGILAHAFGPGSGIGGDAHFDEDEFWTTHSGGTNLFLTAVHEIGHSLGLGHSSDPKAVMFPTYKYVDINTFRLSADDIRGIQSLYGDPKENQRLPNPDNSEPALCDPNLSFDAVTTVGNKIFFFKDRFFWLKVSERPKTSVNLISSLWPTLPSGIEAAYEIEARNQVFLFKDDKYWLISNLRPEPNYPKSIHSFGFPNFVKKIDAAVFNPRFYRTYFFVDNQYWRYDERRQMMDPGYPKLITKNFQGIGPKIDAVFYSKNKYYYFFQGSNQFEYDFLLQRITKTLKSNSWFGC

The molecule `Cc1ccc2nnn(C[C@@H]3CC[C@H](C(=O)c4ccc(OCC5CCCC5)cc4)[C@H]3C(=O)O)c(=O)c2c1` (racemic) [Example 119, (+/−)-(1RS,2RS,5SR)-2-[4-(Cyclopentylmethoxy)benzoyl]-5-[(6-methyl-4-oxo-1,2,3-benzotriazin-3(4H)-yl)methyl]cyclopentanecarboxylic acid] showed a negative-log IC50 (pIC50) of 10.32.
As for `Cc1ccc2nnn(C[C@H]3CC[C@@H](C(=O)c4ccc(OCc5ccccc5)cc4)[C@@H]3C(=O)O)c(=O)c2c1` (single isomer, unassigned) [Example 93, (−)-(1RS,2RS,5SR)-2-[4-(Benzyloxy)benzoyl]-5-[(6-methyl-4-oxo-1,2,3-benzotriazin-3(4H)-yl)methyl]cyclopentanecarboxylic acid], the pIC50 was 6.72. Against the preceding molecule, the pIC50 is 3.60 log units lower.
The figure for `O=C(O)[C@@H]1[C@@H](Cn2nnc3ccc(C(F)(F)F)cc3c2=O)CC[C@H]1C(=O)c1ccc(OCc2cccc(C(F)(F)F)c2)cc1` (single isomer, unassigned) [Example 20, (−)-(1RS,2SR,5RS)-2-{[4-Oxo-6-(trifluoromethyl)-1,2,3-benzotriazin-3(4H)-yl]methyl}-5-(4-{[3-(trifluoromethyl)benzyl]oxy}benzoyl)cyclopentanecarboxylic acid] is 8.34; for `Cc1ccc2nnn(C[C@H]3CC[C@@H](C(=O)c4ccc(OCCc5ccccc5)cc4)[C@@H]3C(=O)O)c(=O)c2c1` (single isomer, unassigned) [Example 113, (+)-(1RS,2SR,5RS)-2-[(6-Methyl-4-oxo-1,2,3-benzotriazin-3(4H)-yl)methyl]-5-[4-(2-phenylethoxy)benzoyl]cyclopentanecarboxylic acid] it is 9.62.
The result for `Cc1ccc2nnn(C[C@H]3CC[C@@H](C(=O)c4ccc(OCC5CCCCC5)cc4)[C@@H]3C(=O)O)c(=O)c2c1` (single isomer, unassigned) [Example 118, (−)-(1RS,2RS,5SR)-2-[4-(Cyclohexylmethoxy)benzoyl]-5-[(6-methyl-4-oxo-1,2,3-benzotriazin-3(4H)-yl)methyl]cyclopentanecarboxylic acid] reads 6.82; that for `COc1cccc(COc2ccc(C(=O)[C@@H]3CC[C@H](Cn4nnc5ccc(C)cc5c4=O)[C@H]3C(=O)O)cc2)c1` (single isomer, unassigned) [Example 108, (−)-(1RS,2RS,5SR)-2-{4-[(3-Methoxybenzyl)oxy]benzoyl}-5-[(6-methyl-4-oxo-1,2,3-benzotriazin-3(4H)-yl)methyl]cyclopentanecarboxylic acid], 6.33; that for `O=C(O)[C@H]1[C@H](Cn2nnc3ccc(C(F)(F)F)cc3c2=O)CC[C@@H]1C(=O)c1ccc(OCc2cccc(N3CCOC3=O)c2)cc1` (racemic) [Example 33, (+/−)-(1RS,2RS,5SR)-2-(4-{[3-(2-Oxo-1,3-oxazolidin-3-yl)benzyl]oxy}benzoyl)-5-{[4-oxo-6-(trifluoromethyl)-1,2,3-benzotriazin-3 (4H)-yl]methyl}cyclopentanecarboxylic acid], 9.89.
Molecule `CCCCCOc1ccc(C(=O)[C@@H]2CC[C@H](Cn3nnc4ccc(C)cc4c3=O)[C@H]2C(=O)O)cc1` (single isomer, unassigned) [Example 124, (+)-(1RS,2SR,5RS)-2-[(6-Methyl-4-oxo-1,2,3-benzotriazin-3(4H)-yl)methyl]-5-[4-(pentyloxy)benzoyl]cyclopentanecarboxylic acid] gave a negative logarithm of the IC50 (pIC50) of 10.21. This pIC50 is 0.32 log units higher than that of the molecule before.
The figure for `O=C(O)[C@H]1[C@H](Cn2nnc3ccc(C(F)(F)F)cc3c2=O)CC[C@@H]1C(=O)c1ccc(OCC2CCC2)cc1` (racemic) [Example 46, (+/−)-(1RS,2RS,5SR)-2-[4-(Cyclobutylmethoxy)benzoyl]-5-{[4-oxo-6-(trifluoromethyl)-1,2,3-benzotriazin-3(4H)-yl]methyl}cyclopentanecarboxylic acid] is 10.47.
The result for `Cc1ccc2nnn(C[C@H]3CC[C@@H](C(=O)c4ccc(OCc5cccc(C(F)(F)F)c5)cc4)[C@@H]3C(=O)O)c(=O)c2c1` (single isomer, unassigned) [Example 102, (−)-(1RS,2SR,5RS)-2-[(6-Methyl-4-oxo-1,2,3-benzotriazin-3(4H)-yl)methyl]-5-(4-{[3-(trifluoromethyl)benzyl]oxy}benzoyl)cyclopentanecarboxylic acid] reads 8.06; that for `Cc1ccc2nnn(C[C@@H]3CC[C@H](C(=O)c4ccc(OCCCc5ccccc5)cc4)[C@H]3C(=O)O)c(=O)c2c1` (racemic) [Example 115, (+/−)-(1RS,2SR,5RS)-2-[(6-Methyl-4-oxo-1,2,3-benzotriazin-3(4H)-yl)methyl]-5-[4-(3-phenylpropoxy)benzoyl]cyclopentanecarboxylic acid], 9.89.
The result for `O=C(O)[C@@H]1[C@@H](Cn2nnc3ccc(C(F)(F)F)cc3c2=O)CC[C@H]1C(=O)c1ccc(OCC2CCCC2)cc1` (single isomer, unassigned) [Example 45, (−)-(1RS,2RS,5SR)-2-[4-(Cyclopentylmethoxy)benzoyl]-5-{[4-oxo-6-(trifluoromethyl)-1,2,3-benzotriazin-3(4H)-yl]methyl}cyclopentanecarboxylic acid] reads 8.39; that for `Cc1cccc(COc2ccc(C(=O)[C@@H]3CC[C@H](Cn4nnc5ccc(C(F)(F)F)cc5c4=O)[C@H]3C(=O)O)cc2)c1` (single isomer, unassigned) [Example 17, (−)-(1RS,2RS,5SR)-2-{4-[(3-Methylbenzyl)oxy]benzoyl}-5-{[4-oxo-6-(trifluoromethyl)-1,2,3-benzotriazin-3(4H)-yl]methyl}cyclopentanecarboxylic acid], 7.32.
With `O=C(O)[C@@H]1[C@@H](Cn2nnc3ccc(C(F)(F)F)cc3c2=O)CC[C@H]1C(=O)c1ccc(OCc2ccc(Cl)cc2)cc1` (single isomer, unassigned) [Example 26, (−)-(1RS,2RS,5SR)-2-{4-[(4-Chlorobenzyl)oxy]benzoyl}-5-{[4-oxo-6-(trifluoromethyl)-1,2,3-benzotriazin-3(4H)-yl]methyl}cyclopentanecarboxylic acid], the pIC50 was 9.00.
`O=C(O)[C@@H]1[C@@H](Cn2nnc3ccc(C(F)(F)F)cc3c2=O)CC[C@H]1C(=O)c1ccc(OCC2CCC2)cc1` (single isomer, unassigned) [Example 47, (+)-(1RS,2RS,5SR)-2-[4-(Cyclobutylmethoxy)benzoyl]-5-{[4-oxo-6-(trifluoromethyl)-1,2,3-benzotriazin-3(4H)-yl]methyl}cyclopentanecarboxylic acid] showed a pIC50 of 10.60.
The molecule `O=C(O)[C@H]1[C@H](Cn2nnc3ccc(C(F)(F)F)cc3c2=O)CC[C@@H]1C(=O)c1ccc(SCCc2ccccc2)cc1` (racemic) [Example 82, (+/−)-(1RS,2SR,5RS)-2-{[4-Oxo-6-(trifluoromethyl)-1,2,3-benzotriazin-3(4H)-yl]methyl}-5-{4-[(2-phenylethyl)sulphanyl]benzoyl}cyclopentanecarboxylic acid] had a negative-log IC50 (pIC50) of 9.92.
The figure for `CCCCCOc1ccc(C(=O)[C@H]2CC[C@@H](Cn3nnc4ccccc4c3=O)[C@@H]2C(=O)O)cc1` (racemic) [Example 7, (+/−)-(1RS,2SR,5RS)-2-[(4-Oxo-1,2,3-benzotriazin-3(4H)-yl)methyl]-5-[4-(pentyloxy)benzoyl]cyclopentanecarboxylic acid] is 9.59; for `CCCCCOc1ccc(C(=O)[C@@H]2CC[C@H](Cn3nnc4ccc(C)cc4c3=O)[C@H]2C(=O)O)cc1` (single isomer, unassigned) [Example 125, (−)-(1RS,2SR,5RS)-2-[(6-Methyl-4-oxo-1,2,3-benzotriazin-3(4H)-yl)methyl]-5-[4-(pentyloxy)benzoyl]cyclopentanecarboxylic acid] it is 8.17.
The figure for `CCCCCCOc1ccc(C(=O)[C@H]2CC[C@@H](Cn3nnc4ccccc4c3=O)[C@@H]2C(=O)O)cc1` (racemic) [Example 6, (+/−)-(1RS,2RS,5SR)-2-[4-(Hexyloxy)benzoyl]-5-[(4-oxo-1,2,3-benzotriazin-3(4H)-yl)methyl]cyclopentanecarboxylic acid] is 9.77; for `CC(C)CCOc1ccc(C(=O)[C@@H]2CC[C@H](Cn3nnc4ccc(C(F)(F)F)cc4c3=O)[C@H]2C(=O)O)cc1` (single isomer, unassigned) [Example 61, (+)-(1RS,2RS,5SR)-2-[4-(3-Methylbutoxy)benzoyl]-5-{[4-oxo-6-(trifluoromethyl)-1,2,3-benzotriazin-3(4H)-yl]methyl}cyclopentanecarboxylic acid] it is 10.49; for `O=C(O)[C@H]1[C@H](Cn2nnc3ccc(C(F)(F)F)cc3c2=O)CC[C@@H]1C(=O)c1ccc(OCC2CCCC2)cc1` (racemic) [Example 43, (+/−)-(1RS,2RS,5SR)-2-[4-(Cyclopentylmethoxy)benzoyl]-5-{[4-oxo-6-(trifluoromethyl)-1,2,3-benzotriazin-3(4H)-yl]methyl}cyclopentanecarboxylic acid] it is 10.41.
The figure for `O=C(O)[C@H]1[C@H](Cn2nnc3ccc(C(F)(F)F)cc3c2=O)CC[C@@H]1C(=O)c1ccc(OCc2ccc(Cl)cc2)cc1` (racemic) [Example 24, (+/−)-(1RS,2RS,5SR)-2-{4-[(4-Chlorobenzyl)oxy]benzoyl}-5-{[4-oxo-6-(trifluoromethyl)-1,2,3-benzotriazin-3(4H)-yl]methyl}cyclopentanecarboxylic acid] is 10.82.

By pIC50 is commonly meant the negative decadic logarithm of the IC50, by convention in mol/L. Low readings indicate a high IC50, high ones a low IC50.
